The values that follow come from patent publication US5679671A, “Amino acid derivative” (Eisai Co., Ltd., priority 1993, dated 1997).

Series [1] addresses T1, NEP (Rattus norvegicus, UniProt P07861).
T1 sequence (P07861 1-750): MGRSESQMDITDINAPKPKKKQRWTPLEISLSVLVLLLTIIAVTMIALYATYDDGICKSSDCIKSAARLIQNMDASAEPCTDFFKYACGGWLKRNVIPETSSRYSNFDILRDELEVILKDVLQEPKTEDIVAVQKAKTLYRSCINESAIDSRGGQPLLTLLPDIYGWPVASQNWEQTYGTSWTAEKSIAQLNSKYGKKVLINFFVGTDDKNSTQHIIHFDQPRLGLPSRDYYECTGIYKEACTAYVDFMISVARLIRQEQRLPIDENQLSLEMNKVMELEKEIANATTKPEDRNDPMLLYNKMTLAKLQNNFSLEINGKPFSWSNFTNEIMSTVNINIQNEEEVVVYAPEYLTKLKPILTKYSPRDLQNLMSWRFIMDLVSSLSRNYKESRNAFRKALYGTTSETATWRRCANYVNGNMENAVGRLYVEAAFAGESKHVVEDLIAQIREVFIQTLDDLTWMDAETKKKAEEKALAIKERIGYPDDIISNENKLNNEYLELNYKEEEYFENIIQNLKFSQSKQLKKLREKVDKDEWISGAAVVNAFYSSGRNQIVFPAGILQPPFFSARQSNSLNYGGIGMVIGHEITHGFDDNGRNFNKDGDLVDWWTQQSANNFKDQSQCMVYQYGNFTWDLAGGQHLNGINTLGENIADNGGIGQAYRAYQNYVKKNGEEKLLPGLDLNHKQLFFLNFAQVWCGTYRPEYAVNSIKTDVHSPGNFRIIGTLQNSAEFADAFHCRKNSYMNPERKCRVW
In words: NEP inhibition activity using rat renal cortex (Experiment B-1). The class given is biochemical. The following applies: rat renal cortex membrane fraction. Set-up: membrane fraction prepared from rat renal cortex; from tissue; host or cells: rat renal cortex, membrane fraction (method of Booth and Kenny). How it is done:
The NEP activity was determined by using a membrane fraction prepared from rat renal cortex in accordance with the method of Booth and Kenay (A Rapid Metod for the Purificaton of Microvilli from Rabbit Kidney., Andrew G. Booth and A. John Kenny, Biochem j., 1974, 142, 575-581.).
The NEP activity was determined by the following manner in accordance with the method of Orlowsky and Wilk (Purification and Specificity of a Membrane-Bound Metalloendpeptldase from Bovine Pituitaries., Marian Orlowsky and Shrwin Wilk, Biochemistry, 1981, 20, 4942-4950.).
As a substrate, benzoyl-glycine-arginine-arginine-2-naphthylamide (benzoyl-Gly-Arg-Arg-2-naphthylamide (Nova Biochem, Switzerland)) was used. In the presence of an NEP enzyme preparation and excessive leucine aminopeptidase (sigma chemical Co., U.S.A.), the liberated naphthylamine was made to undergo color development with first garnet (Sigma chemical Co., U.S.A.), followed by the measurement of the absorbance at a wavelength of 540 nm.
With respect to the NEP inhibition activity, the inhibitor was added to the reaction system as described above in such a manner as to give the final concentrations of 1, 3, 10, 30, 100, 300 and 1000 nM, an inhibition curve was prepared, and then the concentration at which 50% inhibition was achieved was taken as IC50.

In series [2] the target is T2, ACE (Rattus norvegicus, UniProt P47820).
T2 construct: membrane fraction prepared from rat lung; from tissue; host or cells: rat lung, membrane fraction (method of Wu-Wong et al.)
T2 sequence (P47820 36-1313): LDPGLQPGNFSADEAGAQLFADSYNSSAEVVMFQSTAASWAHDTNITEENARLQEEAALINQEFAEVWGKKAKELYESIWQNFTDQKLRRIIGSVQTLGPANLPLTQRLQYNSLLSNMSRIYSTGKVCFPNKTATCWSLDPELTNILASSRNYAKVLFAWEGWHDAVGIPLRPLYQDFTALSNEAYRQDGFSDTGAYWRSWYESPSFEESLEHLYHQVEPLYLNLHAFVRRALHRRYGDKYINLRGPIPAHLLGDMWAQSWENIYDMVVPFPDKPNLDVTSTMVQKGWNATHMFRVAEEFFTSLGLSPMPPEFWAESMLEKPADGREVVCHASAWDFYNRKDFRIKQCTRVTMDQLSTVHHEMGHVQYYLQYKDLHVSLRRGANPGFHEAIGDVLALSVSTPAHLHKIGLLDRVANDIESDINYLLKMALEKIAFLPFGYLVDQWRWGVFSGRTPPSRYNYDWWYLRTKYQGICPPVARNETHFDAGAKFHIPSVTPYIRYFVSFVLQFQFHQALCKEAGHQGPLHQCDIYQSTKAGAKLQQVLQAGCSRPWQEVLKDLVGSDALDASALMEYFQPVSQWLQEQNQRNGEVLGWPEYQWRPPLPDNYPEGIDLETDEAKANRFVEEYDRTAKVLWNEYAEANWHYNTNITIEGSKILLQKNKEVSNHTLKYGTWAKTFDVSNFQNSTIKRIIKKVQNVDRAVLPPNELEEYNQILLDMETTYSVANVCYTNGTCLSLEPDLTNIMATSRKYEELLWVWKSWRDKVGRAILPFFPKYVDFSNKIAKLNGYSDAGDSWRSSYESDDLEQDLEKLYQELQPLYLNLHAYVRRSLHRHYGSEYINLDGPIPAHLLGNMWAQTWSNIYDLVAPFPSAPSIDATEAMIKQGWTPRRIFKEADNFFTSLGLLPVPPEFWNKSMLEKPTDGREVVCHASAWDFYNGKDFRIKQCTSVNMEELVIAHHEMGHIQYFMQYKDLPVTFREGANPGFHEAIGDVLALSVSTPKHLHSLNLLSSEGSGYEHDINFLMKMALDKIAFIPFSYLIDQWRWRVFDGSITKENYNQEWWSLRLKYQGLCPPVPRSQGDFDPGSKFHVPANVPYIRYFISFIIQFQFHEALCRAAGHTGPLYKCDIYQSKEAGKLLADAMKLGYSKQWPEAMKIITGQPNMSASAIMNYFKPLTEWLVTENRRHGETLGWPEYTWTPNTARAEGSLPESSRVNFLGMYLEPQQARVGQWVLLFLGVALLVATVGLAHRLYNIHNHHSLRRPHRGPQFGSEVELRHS
In words: ACE inhibition activity using rat lung (Experiment B-2). Type of series: biochemical. The conditions noted are these: rat lung membrane fraction, borate buffer. How it is done:
The ACE inhibition activity was determined by using a membrane fraction prepared from rat lung in accordance with the method of Wu-Wong et al. (Characterization of Endthelin Converting Enzyme in Rat Lung., Junshyum R. Wu-Wong, Gerald, P. Budzik, Edward M. Devine and Terry J. Opgenorth, Biochem. Biophys. Res. Commun., 1990, 171, 1291-1296.).
The ACE activity was determined with the use of a modification (modified to a borate buffer, p11 8.3) of the method of Cushman and Cheung (Spectrophotometric Assay and Properties of the Angiotensin-Converting Enzyme of Rabbit Lung., Cushman, D. W. and Cheung H. S., 1971, 20, […].).
In the presence of ACE, the hippurate liberated from hippuryl-histidine-leucine (Hippuryl-His-Leu (PeptideInstitute Inc., Japan)) was extracted with ethyl acetate and then the absorbance was measured at a wavelength of 228 nm.
With respect to the ACE inhibition activity, the inhibitor was added to the reaction system as described above in such a manner as to give the final concentrations of 1, 3, 10, 30, 100, 300 and 1000 nM, an inhibition curve was prepared, and then the concentration at which 50% inhibition was achieved was taken as IC50.

Series [3] addresses T2, ACE. Description: ACE inhibition activity (Experiment E-1). Type of series: biochemical. The conditions noted are these: rat lung membrane fraction, pH 8.3. How it is done: As a source of the enzyme ACE, a membrane fraction prepared from rat lung in accordance with the method of Wu-Wong et al. (Characterization of Endthelin Converting Enzyme in Rat Lung., Jinshyum R. Wu-Wong, Gerald, P. Budzik, Edward M. Devine and Terry J. Opgenorth, Biochem. Biophys. Res. Commun., 1990, 171, 1291-1296.) was used. The ACE activity was determined with the use of a modification (modified to a borate buffer pH 8.3) of the method of Cushman and Cheung (Spectrophotometric Assay and Properties of the Angiotensin-Converting Enzyme of Rabbit Lung., Cushman D. W. and Cheung H. S., 1971, 20, 1637-1648.). Now the procedure will be briefly described.
In the presence of ACE, the hippurate liberated from hippuryl-histidyl-leucine (Hippuryl-His-Leu (PeptideInstitute Inc., Japan)) was extracted with ethyl acetate and then the absorbance was measured at a wavelength of 228 nm.
(§1) To determine the NEP inhibition activity and the ACE inhibition activity, the inhibitor was added to the assay systems of both enzyme activities as described above in such a manner as to give the final concentrations of 1, 3, 10, 30, 100, […] and 1000 nM and inhibition curves were prepared. Then the concentration at which 50% inhibition was achieved was taken as IC50.

Series [4] concerns the target T1, NEP. Description: NEP inhibition activity (Experiment E-1). Set-up: membrane fraction prepared from rat renal cortex; from tissue; host or cells: rat renal cortex, membrane fraction (method of Booth and Kenny). The class given is biochemical. The conditions noted are these: rat renal cortex membrane fraction. How it is done: As a source of the enzyme NEP, a membrane fraction prepared from rat renal cortex in accordance with the method of Booth and Kenny (A Rapid Method for the Purification of Microvilli from Rabbit Kidney., Andrew G. Booth and A. John Kenny, Biochem. j., 1974, 142,575-581.) was employed. The NEP activity was determined in accordance with the method of Orlowsky and Wilk (Purification and Specificity of a Membrane-Bound Metalloendpeptidase from Bovine Pituitaries., Marian Orlowsky and Shrwin Wilk, Biochemistry, 1981, 20, 4942-4950.). Now the procedure will be briefly described.
As a substrate, benzoyl-glycyl-arginyl-arginyl-2-naphthylamide (benzoyl-Gly-Arg-Arg-2 naphthylamide (Nova Biochem, Switzerland)) was used. In the presence of an NEP enzyme preparation and excessive leucine aminopeptidase (sigma chemical Co., U.S.A.), the liberated naphthylamine was made to undergo color development with first garnet (Sigma chemical Co., U.S.A.), followed by the measurement of the absorbance at a wavelength of 540 nm.
as §1

A short description of a further series: in vivo. The conditions noted are these: rat, in vivo; for bioavailability: po. The text has this: Then changes in the blood level of each medicament were monitored with the lapse of time by using liquid chromatography.

Take `CCOC(=O)C1CCCC2c3sccc3CC(NC(=O)[C@H](Cc3ccccc3)SC(C)=O)C(=O)N12` (single isomer, unassigned) [Example B-7]: the half-maximal inhibitory concentration (IC50) against NEP [1] was determined as 55 nM; at ACE [2], 60 nM.

As to `O=C(N[C@H]1Cc2sccc2[C@H]2CCC[C@@H](C(=O)O)N2C1=O)[C@@H](S)Cc1ccccc1` [Example B-3, [5S-[5α,8α(R*),11αβ]]-5-[[(S)-2-Mercapto-1-oxo-3-phenylpropyl]amino]-6-oxo-4,5,6,8,9,10,11,11a-octahydropyrido[1,2-a]thieno[3,2c]azepine-8-carboxylic acid], the results for the IC50 at NEP [1] and at ACE [2] were 8.6 nM and 16 nM, respectively.

As for `O=C(O)C1CCCC2c3sccc3CC(NC(=O)[C@@H](S)Cc3ccccc3)C(=O)N12` (stereo partly drawn) [Example B-8, 5-[(S)-2-Mercapto-1-oxo-3-phenylpropyl]amino-6-oxo-4,5,6,8,9,10,11,11a-octahydro[1,2-a]thieno-[2,3-c]azepine-8-carboxylic acid], the 50% inhibitory concentration (IC50) is 72 nM at NEP [1] and 90 nM at ACE [2].

Turning to `O=C(N[C@H]1Cc2ccc(-c3ccccc3)cc2[C@H]2CCC[C@@H](C(=O)O)N2C1=O)[C@@H](S)Cc1ccccc1` [Example E-6, [4S-[4α,7α(R*),12bβ]]-7-[(S)-2-Mercapto-3-phenylpropionylamino]-6-oxo-11-phenyl-1,2,3,4,6,7,8,12b-octahydropyrido[2,1-a][2]benzazepine-4-carboxylic acid], the IC50 came out at 10 nM at ACE [3] and 28 nM against NEP [4]. Moreover, the oral absorbability entry in “in vivo” is reported as “superior in oral absorbability to the comparative compound E-1”. The results for the bioavailability in “in vivo” (10 mg/kg) and in “in vivo” (30 mg/kg) were 18.8% and 24.6%, respectively.
